Measured values published in PubChem BioAssay (NCI).
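How tested: cells in 96-well plates exposed to compound for 48 hours at five concentrations. GI50 is the concentration that inhibits growth by half. TGI marks complete inhibition of growth.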

Assays:
Assay in all cases: growth of human tumour cells (NCI), 48 h
HCC-2998 colon = test system: HCC-2998 colon
SK-MEL-28 melanoma = test system: SK-MEL-28 melanoma
PC-3 prostate = test system: PC-3 prostate
MCF7 breast = test system: MCF7 breast
EKVX NSCLC = test system: EKVX NSCLC
HOP-92 NSCLC = test system: HOP-92 NSCLC
COLO 205 colon = test system: COLO 205 colon
CAKI-1 renal = test system: CAKI-1 renal
SN12C renal = test system: SN12C renal
RPMI-8226 leukemia = test system: RPMI-8226 leukemia

| SMILES | TGI (HCC-2998 colon) [µM] | TGI (SK-MEL-28 melanoma) [µM] | TGI (PC-3 prostate) [µM] | TGI (MCF7 breast) [µM] | TGI (EKVX NSCLC) [µM] | TGI (HOP-92 NSCLC) [µM] | TGI (COLO 205 colon) [µM] | TGI (CAKI-1 renal) [µM] | TGI (SN12C renal) [µM] | TGI (RPMI-8226 leukemia) [µM] | GI50 (HCC-2998 colon) [µM] | GI50 (SK-MEL-28 melanoma) [µM] | GI50 (PC-3 prostate) [µM] | GI50 (MCF7 breast) [µM] | GI50 (EKVX NSCLC) [µM] | GI50 (HOP-92 NSCLC) [µM] | GI50 (COLO 205 colon) [µM] | GI50 (CAKI-1 renal) [µM] | GI50 (SN12C renal) [µM] | GI50 (RPMI-8226 leukemia) [µM] |
| --- | --- | --- | --- | --- | --- | --- | --- | --- | --- | --- | --- | --- | --- | --- | --- | --- | --- | --- | --- | --- |
| CN(C)CCOC(=O)COc1ccc(Cl)cc1 | > 100 | > 100 | > 100 | > 100 | > 100 | > 100 | > 100 | > 100 | > 100 | – | – | – | – | – | – | – | – | – | – | – |
| O=C(Nn1c(-c2ccccc2)nc2ccccc2c1=O)c1ccccn1 | > 100 | > 100 | > 100 | – | > 100 | > 100 | > 100 | – | > 100 | > 100 | – | – | – | – | – | – | – | – | – | – |
| COc1ccc(C(O)c2ccc3c(c2)OCO3)cc1 (stereo unspecified) | > 100 | > 100 | > 100 | > 100 | > 100 | > 100 | > 100 | > 100 | > 100 | – | – | – | – | – | – | – | – | – | – | – |
| O=C(c1ccccc1)c1c(C(F)(F)F)n([O-])c2ccccc2[n+]1=O | – | 4.33 | 2.27 | 5.24 | 6.04 | 1.2 | – | 1.94 | – | 3.34 | – | – | – | – | – | – | – | – | – | – |
| CCOC(=O)c1cc2c(OC(C)=O)ccc(OC(C)=O)c2s1 | 22.2 | 5.45 | 5.07 | 11.8 | 7.73 | 3.16 | 4.81 | 8.46 | 5.11 | – | – | – | – | – | – | – | – | – | – | – |
| Cn1c(=O)c2c(-c3ccccc3)onc2n(C)c1=O | 90.2 | – | > 100 | > 100 | > 100 | > 100 | > 100 | > 100 | > 100 | 57.6 | – | – | – | – | – | – | – | – | – | – |
| COc1cc2cc(C(=O)N3CC(CCl)c4c3cc(N)c3ccccc43)[nH]c2cc1OCCN(C)C (stereo unspecified) | 0.535 | – | 5.5 | 6.52 | 10.7 | 0.01 | 0.00971 | 0.094 | 0.5 | 0.408 | – | – | – | – | – | – | – | – | – | – |
| COC(=O)c1sc(=S)sc1SCc1ccccc1CSc1sc(=S)sc1C(=O)OC | > 100 | > 100 | > 100 | > 100 | > 100 | > 100 | > 100 | > 100 | > 100 | – | – | – | – | – | – | – | – | – | – | – |
| O=C1c2[nH]cc(CN3CCNCC3)c2C(=O)c2c1c(O)c1ccccc1c2O | 2.88 | 3.6 | 4.41 | > 100 | 2.49 | 13.1 | 3.39 | 5.94 | 5.15 | – | 1.18 | 1.62 | 1.83 | 32.9 | 0.769 | 3.05 | 1.59 | 2.21 | 1.78 | – |
| Clc1nc(-[n+]2ccc(-c3ccncc3)cc2)nc(Nc2ccccc2)c1Cl | > 100 | > 100 | > 100 | > 100 | > 100 | > 100 | > 100 | – | > 100 | > 100 | – | – | – | – | – | – | – | – | – | – |
| N#Cc1c(Nc2ccc(F)cc2)[n+]([O-])c2ccc(Cl)cc2[n+]1[O-] | – | > 100 | > 100 | 6.1 | – | 5.16 | 4.52 | 20.9 | 13.4 | 9.97 | – | – | – | – | – | – | – | – | – | – |
| CC(NC(=O)/C(=C/c1ccccc1O)NC(=O)c1ccccc1)C(=O)O (stereo unspecified) | 76.2 | > 100 | – | 21.6 | 88.2 | > 100 | > 100 | 37.2 | 48.1 | > 100 | – | – | – | – | – | – | – | – | – | – |
| COc1ccc(C2(c3ccc(OC)cc3)OC(=O)c3cccc4cccc2c34)cc1 | 37.5 | – | 6.47 | > 100 | 29 | > 100 | – | 9.87 | > 100 | 8.8 | – | – | – | – | – | – | – | – | – | – |
| CCc1nnc(-n2c(C)nc3cc(Cl)ccc3c2=O)s1 | > 100 | > 100 | > 100 | > 100 | > 100 | 99.2 | > 100 | > 100 | > 100 | – | – | – | – | – | – | – | – | – | – | – |
| N#Cc1c(NC(=O)c2ccccc2)sc2c1CCC(=O)C2 | 10.3 | – | 13.3 | 7.83 | 10.4 | 2.72 | 4.46 | 1.86 | 7.51 | 1.32 | 1.82 | – | 0.385 | 0.64 | 2.33 | 0.821 | 1.93 | 0.38 | 1.16 | 0.305 |
| COc1cccc(NC(=O)CSc2nnc(-c3ccc(N=Cc4ccc(Cl)cc4)cc3)o2)c1 | – | 37.5 | – | – | > 100 | – | 41.4 | – | 43 | 65.1 | – | – | – | – | – | – | – | – | – | – |
| CC1=C(C(=O)OCCc2ccc([N+](=O)[O-])cc2)C(c2ccccc2[N+](=O)[O-])C(C(=O)OC(C)C)=C(C)N1 (stereo unspecified) | > 100 | > 100 | 18 | > 100 | 39.2 | – | > 100 | > 100 | > 100 | > 100 | – | – | – | – | – | – | – | – | – | – |
| O=C(O)/C=C(/CC(=O)O)C(=O)O | 90.4 | 43.7 | 40.2 | 39.3 | 51.7 | – | 38.6 | 54.1 | 40.7 | 37 | – | – | – | – | – | – | – | – | – | – |
| Cc1cc(Cc2c(F)c(F)c(Cc3cc(C)no3)c(F)c2F)on1 | – | > 100 | > 100 | > 100 | > 100 | > 100 | > 100 | 24.6 | > 100 | > 100 | – | – | – | – | – | – | – | – | – | – |
| CC1=CC(O)C(O)C2(C)C1CC1OC(=O)C(O)C3C(C)C(O)C4(O)OCC13C42 (stereo unspecified) | 126 | 502 | – | 464 | 197 | 14.6 | 79.7 | 205 | > 625 | 108 | – | – | – | – | – | – | – | – | – | – |
| NC(Cc1cc(I)c(O)c(I)c1)C(=O)O (stereo unspecified) | > 500 | > 500 | – | > 500 | > 316 | > 107 | > 500 | 249 | > 500 | > 500 | – | – | – | – | – | – | – | – | – | – |
| O=c1[nH]c(=O)n(C2OC(COP(=O)(O)OP(=O)(O)O)C(O)C2O)cc1F (stereo unspecified) | > 50 | > 50 | – | – | 42.5 | > 50 | > 50 | 34.8 | > 50 | > 50 | – | – | – | – | – | – | – | – | – | – |
